Residues, ends and D or L forms follow the SMILES beside them.
Experiments:
[1] = target: T1, recombinant human CD44v6-Fc protein (Homo sapiens, UniProt P16070); assay: SPR analysis of peptide binding affinity to CD44v6-Fc; conditions: biotin-conjugated peptide on streptavidin chip, CD44v6-Fc 0.125-2 µM, steady-state 1:1 fit, pH 7.4
T1 sequence (P16070 386-428 limits assumed): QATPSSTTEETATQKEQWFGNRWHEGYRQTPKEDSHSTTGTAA
Procedure: The binding affinity (KD) of CD44v6-binding peptides to the CD44v6 protein was measured using an SPR instrument (Reichert Technologies, Depew, NY). A streptavidin chip was used as the immobilization substrate and exposed to biotin-labeled peptides (25 μΜ) at 5 μL/min for 50 min. The streptavidin only surface was used for the reference surface. All SPR signals were corrected by subtraction with the response of the reference surface. After washing, the chip was flowed with a solution of CD44v6-Fc or CD44-Fc protein (R&D Systems, Minneapolis, MN) in binding buffer (137 mM NaCl, 10 mM phosphate, 2.7 mM KCl pH 7.4, 62.5 µM BSA, and 0.005% Tween-20) at concentrations of 0.125, 0.25, 0.5, 1, and 2 μM at 10 μL/min for 3 min. Five concentrations (0.125, 0.25, 0.5, 1, and 2 µM) of CD44v6-Fc and CD44-Fc were used in a single-cycle dynamic SPR measurements. Resonance units were recorded and analyzed using Scrubber 2.0 software (BioLogic Software, Campbell, Australia). KD values were calculated by analyzing the steady-state binding data by fitting the curve of binding level against concentration with a 1:1 binding model (GraphPad Prism 7.0 software).

[2] = tested on: 4T1 cells; assay: Saturation cell binding assay, 4T1; parameters: species or system mouse; conditions: biotin-labeled peptide 0-256 µM, 4 °C, 1 h
Procedure: Supplementary Information
Supplementary Materials and Methods
Saturation binding assays to determine the cellular binding affinities of peptides Cells (5 × 10^3 cells per well in a 96-well plate) were incubated with 1% bovine serum albumin (BSA) for 30 min and with different concentrations of biotin-labeled peptides (0, 2, 4, 8, 16, 32, 64, 128, and 256 µM) at 4 °C for 1 h. After washing, the cells were incubated with horseradish peroxidase-conjugated neutravidin (1:10,000 dilution; ThermoFisher Scientific, Waltham, MA) for 30 min at room temperature. Enzymatic activity was detected using a 3,3ʹ,5,5ʹ-tetramethylbenzidine substrate (ThermoFisher Scientific), and the reaction was stopped using 2 M sulfuric acid. The absorbance at 450 nm was measured in each well using a microplate reader (Tecan, Mannedorf, Switzerland). The KD values were then calculated using GraphPad Prism 6 software (GraphPad Inc., La Jolla, CA). […]
10 µM biotin-labeled CD44v6-binding peptides at 4 °C for 1 h. […]
Scientific) for 30 min at room temperature. […]

[3] = tested on: CD44v6-high cells (MDA-MB231, 4T1, Panc-1) versus CD44v6-low MCF7 cells; assay: Immunofluorescence microscopy and flow cytometry of FITC-peptide cell binding; format: cell-based; conditions: FITC-labeled peptide 25 µM, 4 °C, 1 h
Procedure: Cells were seeded in each well of an 8-well chamber slide at a density of 1 × 10^5 cells per well, incubated overnight, and then treated with 1% BSA at room temperature for 1 h. Subsequently, the cells were incubated with FITC-conjugated peptides (25 µM) at 4 °C for 1 h, blocked with BSA, fixed, and incubated with an anti-human CD44v6 mouse monoclonal antibody (clone no. VFF-7, 1:100 dilution; Santa Cruz Biotechnology, Dallas, TX) or a rabbit anti-CD44v6 polyclonal antibody (1:100 dilution; Merck). The cells were then incubated with an Alexa Fluor 594-labeled goat anti-mouse IgG or goat anti-rabbit IgG secondary antibodies (Merck). After incubation, the cells were counterstained with 4ʹ,6-diamidino-2-phenylindole (DAPI, Sigma-Aldrich, St. Louis, MI), mounted with ProLong antifade reagent (Thermo Fischer Scientific), and observed under a confocal microscope (Zeiss, Jena, Germany).
Cells (1 × 10^5 cells) were harvested and suspended in culture medium containing 1% BSA for 1 h, followed by an incubation with FITC-labeled peptides (25 µM) at 4 °C for 1 h. After washing, the cells were analyzed using a FACSCalibur flow cytometer (BD, Franklin Lakes, NJ). […]

[4] = target: T2, CD44v6 on MDA-MB231 cells (Homo sapiens, UniProt P16070); assay: Flow cytometric competition assays with anti-CD44v6 antibody; format: cell-based; conditions: for peptide binding to cells after pre-treatment with anti-CD44v6 antibody: MDA-MB231, antibody 5 µg/mL 1 h, FITC-labeled peptide 10 µM; for staining of CD44v6 with anti-CD44v6 antibody after pre-treatment with peptide: MDA-MB231, peptide 50 µM 1 h
T2 sequence (P16070 386-428 limits assumed): T1 sequence (P16070 386-428 limits assumed)
Procedure: Cells (1 × 10^5 cells) were harvested and suspended in culture medium containing 1% BSA for 1 h, followed by an incubation with FITC-labeled peptides (25 µM) at 4 °C for 1 h. After washing, the cells were analyzed using a FACSCalibur flow cytometer (BD, Franklin Lakes, NJ). For competition assays, cells were incubated with 5 µg/mL of an anti-human CD44v6 mouse monoclonal antibody (clone no. VFF-18, 1:100 dilution; Abcam, Cambridge, MA) and anti-human CD44 monoclonal antibody (clone no. 156-3C11, 1:100 dilution; ThermoFisher Scientific) for 1 h to compete with peptide binding, followed by an incubation with FITC-labeled peptides (10 µM) before analysis on a flow cytometer (BD). In another set of assays, cells were incubated with peptides (50 µM) for 1 h to compete with antibody binding, followed by an incubation with 5 µg/mL of the anti-human CD44v6 mouse monoclonal antibody for 1 h, The cells were then incubated with an Alexa Fluor 488-labeled goat anti-mouse IgG secondary antibody (Merck) before analysis on a flow cytometer (BD).

[5] = target: T3, CD44v6 from MDA-MB231 cell lysates (Homo sapiens, UniProt P16070); assay: Pull-down assay with biotin-labeled peptides; format: binding; conditions: biotinylated peptide 25 µM, streptavidin beads, immunoblotting
T3 sequence (P16070 386-428 limits assumed): T1 sequence (P16070 386-428 limits assumed)
Procedure: Biotin-labeled peptides were incubated with streptavidin magnetic beads (Bioclone Inc., San Diego, CA) at room temperature for 30-60 min under gentle rotation. MDA-MB231 cells were then lysed using a cell lysis reagent (ThermoFisher Scientific) containing protease inhibitors. The lysates were incubated with the biotinylated peptide (25 µM) and streptavidin bead complexes at room temperature for 30-60 min under gentle rotation. In another set of assays, the recombinant human CD44v6 protein was used instead of the cell lysates. The complexes were pulled down and incubated with an elution buffer containing 2 mM D-biotin (Bioclone Inc.) for 5-10 min, and the eluates were collected and subjected to electrophoresis.

[6] = tested on: MDA-MB231 cells; assay: Transwell cell migration and invasion assays, MDA-MB231; format: cell-based, human; conditions: peptide 20 µM, HGF 25 ng/mL, 24 h
Procedure: Transwell chambers (24-wells) with 8 μm pores were obtained from Corning (Corning, NY). MDA-MB231 and 4T1 cells (1 × 10^6 cells) were harvested, resuspended in 200 μL of DMEM containing CD44v6-binding peptides (20 µM), and then seeded into the upper chamber of the transwell chambers. The lower chamber was filled with 600 μL of DMEM containing 25 ng/mL HGF. After 24 h of incubation, cells that migrated into the reverse side of the transwell membrane were fixed with methanol, stained with crystal violet, and then counted under a light microscope. An average of five visual fields was obtained. For invasion assays, the transwell membrane was pre-coated with 300 µg/mL of Matrigel (Corning).

| SMILES | Kd [1] [µM] | Kd [2] [µM] | cellular binding, CD44v6-high versus CD44v6-low cells [3] | peptide binding to cells after pre-treatment with anti-CD44v6 antibody [4] | staining of CD44v6 with anti-CD44v6 antibody after pre-treatment with peptide [4] | pull-down of CD44v6 and CD44 from cell lysates [5] | pull-down of c-Met together with CD44v6 from cell lysates [5] | HGF-induced cell migration and invasion, MDA-MB231 [6] |
| --- | --- | --- | --- | --- | --- | --- | --- | --- |
| CC[C@H](C)[C@H](NC(=O)[C@@H](NC(=O)[C@H](CC(N)=O)NC(=O)[C@H](CC(C)C)NC(=O)[C@H](CC(N)=O)NC(=O)[C@@H](N)CS)[C@@H](C)O)C(=O)N[C@@H](CC(=O)O)C(=O)N[C@H](C(=O)N[C@@H](CS)C(=O)O)[C@@H](C)O [NLN] (H-CNLNTIDTC-OH; N-terminus and C-terminus assumed) | 0.253 ± 0.079 | 17 ± 7 | bound selectively to CD44v6-high cells | significantly inhibited | inhibited | selectively pulled down CD44v6 but not CD44 | pulled down both c-Met and CD44v6 | inhibited |
| CC(C)C[C@H](NC(=O)[C@H](CCC(N)=O)NC(=O)[C@H](Cc1c[nH]c2ccccc12)NC(=O)[C@H](CCC(=O)O)NC(=O)[C@H](CC(N)=O)NC(=O)[C@@H](N)CS)C(=O)N[C@@H](CCCCN)C(=O)N[C@@H](CO)C(=O)N[C@@H](CS)C(=O)O [NEW] (H-CNEWQLKSC-OH; N-terminus and C-terminus assumed) | 0.085 ± 0.018 | 29 ± 16 | bound selectively to CD44v6-high cells | significantly inhibited | inhibited | selectively pulled down CD44v6 but not CD44 | pulled down only CD44v6 | inhibited |
